PubChem BioAssay (NCI)
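GI50: concentration for 50% inhibition of growth. TGI: concentration producing complete growth inhibition.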

Experiments:
Assay in all cases: DTP human tumour cell line panel, 384-well format
NCI-H322M lung = system: NCI-H322M lung
TK-10 renal = system: TK-10 renal
UACC-257 melanoma = system: UACC-257 melanoma
NCI/ADR-RES ovarian = system: NCI/ADR-RES ovarian
HS 578T breast = system: HS 578T breast
NCI-H522 lung = system: NCI-H522 lung
HT29 colon = system: HT29 colon
CCRF-CEM leukemia = system: CCRF-CEM leukemia
SF-268 CNS = system: SF-268 CNS
HL-60(TB) leukemia = system: HL-60(TB) leukemia
MCF7 breast = system: MCF7 breast
SK-MEL-2 melanoma = system: SK-MEL-2 melanoma
MDA-MB-468 breast = system: MDA-MB-468 breast
SN12C renal = system: SN12C renal
DU-145 prostate = system: DU-145 prostate
COLO 205 colon = system: COLO 205 colon
OVCAR-5 ovarian = system: OVCAR-5 ovarian
OVCAR-8 ovarian = system: OVCAR-8 ovarian
M14 melanoma = system: M14 melanoma
ACHN renal = system: ACHN renal
HOP-62 NSCLC = system: HOP-62 NSCLC
SW-620 colon = system: SW-620 colon
786-0 renal = system: 786-0 renal
MDA-MB-231 breast = system: MDA-MB-231 breast
SK-MEL-28 melanoma = system: SK-MEL-28 melanoma
OVCAR-4 ovarian = system: OVCAR-4 ovarian
K-562 leukemia = system: K-562 leukemia
SF-539 CNS = system: SF-539 CNS
SNB-19 CNS = system: SNB-19 CNS
HCC-2998 colon = system: HCC-2998 colon
SK-OV-3 ovarian = system: SK-OV-3 ovarian
MOLT-4 leukemia = system: MOLT-4 leukemia
T-47D breast = system: T-47D breast
KM12 colon = system: KM12 colon
NCI-H23 lung = system: NCI-H23 lung
NCI-H460 NSCLC = system: NCI-H460 NSCLC
HCT-15 colon = system: HCT-15 colon
RXF 393 renal = system: RXF 393 renal
PC-3 prostate = system: PC-3 prostate
BT-549 breast = system: BT-549 breast
OVCAR-3 ovarian = system: OVCAR-3 ovarian
A498 renal = system: A498 renal
MDA-MB-435 melanoma = system: MDA-MB-435 melanoma
HOP-92 NSCLC = system: HOP-92 NSCLC
CAKI-1 renal = system: CAKI-1 renal
SF-295 CNS = system: SF-295 CNS
U251 glioblastoma = system: U251 glioblastoma
A549 NSCLC = system: A549 NSCLC
SNB-75 CNS = system: SNB-75 CNS
NCI-H226 lung = system: NCI-H226 lung
MALME-3M melanoma = system: MALME-3M melanoma
LOX IMVI melanoma = system: LOX IMVI melanoma
HCT-116 colon = system: HCT-116 colon
IGROV1 ovarian = system: IGROV1 ovarian
EKVX NSCLC = system: EKVX NSCLC
UO-31 renal = system: UO-31 renal
RPMI-8226 leukemia = system: RPMI-8226 leukemia
SK-MEL-5 melanoma = system: SK-MEL-5 melanoma
UACC-62 melanoma = system: UACC-62 melanoma

## Cn1cc(-c2ccc(=O)n(Cc3cccc(-c4ncc(OCCN5CCOCC5)cn4)c3)n2)cn1
NCI-H322M lung
  GI50: > 100 µM
  TGI: > 100 µM
TK-10 renal
  GI50: > 100 µM
  TGI: > 100 µM
UACC-257 melanoma
  GI50: 55.5 µM
  TGI: > 100 µM
NCI/ADR-RES ovarian
  GI50: 32.9 µM
  TGI: > 100 µM
HS 578T breast
  GI50: 97.8 µM
  TGI: > 100 µM
NCI-H522 lung
  GI50: 62.6 µM
  TGI: > 100 µM
HT29 colon
  GI50: > 100 µM
  TGI: > 100 µM
CCRF-CEM leukemia
  GI50: 21.6 µM
  TGI: 57.4 µM
SF-268 CNS
  GI50: > 100 µM
  TGI: > 100 µM
HL-60(TB) leukemia
  GI50: 35.8 µM
  TGI: 94.6 µM
MCF7 breast
  GI50: 48.6 µM
  TGI: > 100 µM
SK-MEL-2 melanoma
  GI50: > 100 µM
  TGI: > 100 µM
MDA-MB-468 breast
  GI50: 17.7 µM
  TGI: 54.6 µM
SN12C renal
  GI50: > 100 µM
  TGI: > 100 µM
DU-145 prostate
  GI50: > 100 µM
  TGI: > 100 µM
COLO 205 colon
  GI50: > 100 µM
  TGI: > 100 µM
OVCAR-5 ovarian
  GI50: > 100 µM
  TGI: > 100 µM
OVCAR-8 ovarian
  GI50: 61.8 µM
  TGI: > 100 µM
M14 melanoma
  GI50: > 100 µM
  TGI: > 100 µM
ACHN renal
  GI50: > 100 µM
  TGI: > 100 µM
HOP-62 NSCLC
  GI50: 23.7 µM
  TGI: 98.6 µM
SW-620 colon
  GI50: > 100 µM
  TGI: > 100 µM
786-0 renal
  GI50: > 100 µM
  TGI: > 100 µM
MDA-MB-231 breast
  GI50: > 100 µM
  TGI: > 100 µM
SK-MEL-28 melanoma
  GI50: > 100 µM
  TGI: > 100 µM
OVCAR-4 ovarian
  GI50: 78.3 µM
  TGI: > 100 µM
K-562 leukemia
  GI50: 35.1 µM
  TGI: > 100 µM
SF-539 CNS
  GI50: > 100 µM
  TGI: > 100 µM
SNB-19 CNS
  GI50: > 100 µM
  TGI: > 100 µM
HCC-2998 colon
  GI50: > 100 µM
  TGI: > 100 µM
SK-OV-3 ovarian
  GI50: > 100 µM
  TGI: > 100 µM
MOLT-4 leukemia
  GI50: 18.6 µM
  TGI: 37.1 µM
T-47D breast
  GI50: 18.3 µM
  TGI: 72.2 µM
KM12 colon
  GI50: 66.1 µM
  TGI: > 100 µM
NCI-H23 lung
  GI50: 14.5 µM
  TGI: > 100 µM
NCI-H460 NSCLC
  GI50: 72 µM
  TGI: > 100 µM
HCT-15 colon
  GI50: > 100 µM
  TGI: > 100 µM
RXF 393 renal
  GI50: 56.6 µM
  TGI: > 100 µM
PC-3 prostate
  GI50: 67.8 µM
  TGI: > 100 µM
BT-549 breast
  GI50: 33.8 µM
  TGI: > 100 µM
OVCAR-3 ovarian
  GI50: > 100 µM
  TGI: > 100 µM
A498 renal
  GI50: > 100 µM
  TGI: > 100 µM
MDA-MB-435 melanoma
  GI50: > 100 µM
  TGI: > 100 µM
HOP-92 NSCLC
  GI50: > 100 µM
  TGI: > 100 µM
CAKI-1 renal
  GI50: 82.5 µM
  TGI: > 100 µM
SF-295 CNS
  GI50: 71.2 µM
  TGI: > 100 µM
U251 glioblastoma
  GI50: 64.2 µM
  TGI: > 100 µM
A549 NSCLC
  GI50: > 100 µM
  TGI: > 100 µM
SNB-75 CNS
  GI50: 98.9 µM
  TGI: > 100 µM
NCI-H226 lung
  GI50: 28.9 µM
  TGI: > 100 µM
MALME-3M melanoma
  GI50: > 100 µM
  TGI: > 100 µM
LOX IMVI melanoma
  GI50: 37.6 µM
  TGI: > 100 µM
HCT-116 colon
  GI50: 75.5 µM
  TGI: > 100 µM
IGROV1 ovarian
  GI50: > 100 µM
  TGI: > 100 µM
EKVX NSCLC
  GI50: 39.5 µM
  TGI: > 100 µM
UO-31 renal
  GI50: > 100 µM
  TGI: > 100 µM
RPMI-8226 leukemia
  GI50: 24.9 µM
  TGI: > 100 µM
SK-MEL-5 melanoma
  GI50: 16.5 µM
  TGI: 36.8 µM
UACC-62 melanoma
  GI50: > 100 µM
  TGI: > 100 µM
